# Results: patent US9440938B2, “Sulfonamide derivative having PGD2 receptor antagonistic activity” (SHIONOGI & CO., LTD., priority 2005, dated 2016)
# Read-outs that look alike come from different tables or passages of the source.
# Columns and labels:
# [1] = target: T1, DP receptor (Homo sapiens, UniProt Q13258); assay: cAMP assay with washed platelet (DP inhibitory activity in vitro); assay type: cell-based; details: washed human platelets, 100 nM PGD2, cAMP by HTRF
# T1 construct: endogenous in cells; host or cells: washed platelets from peripheral blood of a healthy volunteer
# T1 sequence (Q13258 1-359): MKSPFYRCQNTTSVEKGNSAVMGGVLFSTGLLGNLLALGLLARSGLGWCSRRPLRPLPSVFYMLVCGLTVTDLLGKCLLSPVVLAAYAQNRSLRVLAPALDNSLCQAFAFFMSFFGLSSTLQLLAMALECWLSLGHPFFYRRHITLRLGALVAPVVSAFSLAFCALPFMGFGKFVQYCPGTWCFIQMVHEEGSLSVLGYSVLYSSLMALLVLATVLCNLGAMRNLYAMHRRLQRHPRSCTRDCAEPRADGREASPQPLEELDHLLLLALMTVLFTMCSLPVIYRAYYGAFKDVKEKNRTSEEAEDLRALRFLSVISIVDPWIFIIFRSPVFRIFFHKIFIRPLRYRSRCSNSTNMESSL
# Method: 1) Preparation of Platelet and a Method of cAMP Assay
# 30 mL of peripheral blood was collected from a healthy volunteer using a syringe containing one ninth amount of 3.8% sodium citrate. After being centrifuged at 180 g for 10 minutes at room temperature, a supernatant was collected and used as Platelet Rich Plasma (PRP). The resulting PRP was washed with wash buffer and centrifuged three times (Washed Platelet: WP) and platelets were counted by a microcell counter. WP was added to a plate in amount of 1.5×10^8/assay and the plate was treated with 3-isobutyl-1-methylxanthin (IBMX; 0.5 mM) for 5 minutes. A reaction was initiated by adding 100 nM of PGD2 5 min after an addition of a test compound. The reaction was terminated with an addition of 1N hydrochloric acid after 2 minutes and the cells were destructed using 12% triton X-100. An amount of cAMP in the supernatant was assayed by Homogeneous Trangient Fluorescence (HTRF)
# [2] = target: T1, DP receptor; assay: Receptor binding assay, [3H]-PGD2, platelet membrane; details: [3H]-PGD2, human platelet membrane
# Method: 2) Receptor Binding Assay
# A prepared WP was homogenated and a membrane fraction was collected with high-speed centrifugation. A compound of the present invention or a reference compound A (No. IC-73 in WO 2003/097598) was added to the plate and [^3H]-PGD2 was also added. A platelet membrane, a protein concentration is 2 mg/mL, was added and mixed in the plate, and placed on ice for 2 hours. The reaction solution was transferred to a low protein-adsorptive filter and washed with a wash solution eight times using a cell harvester. After the final washing, water was removed sufficiently, and scintillator was added. DP inhibitory activity was investigated by measuring [^3H] by using Micro Beta.
# [3] = tested on: OVA asthma model of rat; assay: Test using OVA asthma model of rat (airway hyperresponsiveness, infiltration of inflammatory cells, mucus-secretion); assay type: in vivo, Brown Norway (BN) Rats; details: po, 72 h
# Method: Test Using OVA Asthma Model of Rat
# Brown Norway (BN) Rats were sensitized by i.p. administration of 0.1 mg/mL of ovalbumin (OVA) and 1 mg of aluminum hydroxide gel. A solution of 1% OVA was aerosolized by ultrasonic nebulizer (NE-U17) and the rats were subjected to inhalation exposure of the aerosol for 30 minutes in an exposing chamber 12, 19, 26 and 33 days after the sensitization. One hour before the 4th exposure of the antigen, compounds of the present invention were administered in a dose of 10 mg/kg p.o. once a day for three days consecutively. In a control group, 0.5% of methyl cellulose was administered in place of the compound of the present invention.
# Under pentobarbital anesthesia (80 mg/kg, i.p.), acetylcholine (3.9, 7.8, 15.6, 31.3, 62.5, 125, 250 and 500 μg/kg) was injected to jugular vein of the rats successively from a lower dose at intervals of 5 minutes three days after the fourth exposure to the antigen, and immediate contractile reaction of airways (an increase of insufflation pressure) was measured by a modified method of Konnzett & Ririssler. Inhibition rate of airway hyperresponsiveness against the control group was calculated based on area under the curve (AUC) obtained from concentration-response curve of acetylcholine.
# After the measurement of increased hyperresponsive airway was completed, bronchoalveoli of the rats were washed with 5 mL of saline three times. Total cell number in the washings was counted by a hemacytometer under light microscope, and inhibition rates of infiltration of inflammatory cells against the control group were calculated. Further, mucin in the airway lavage fluid was measured by ELISA method using jacalin, a mucin-binding lectin, and the inhibition rates of mucus-secretion against the control group were calculated.
# [4] = read-out: IC50 (50% DP-inhibitory concentration in the cAMP assay)
SMILES,"IC50 [1, 4] [nM]",Ki [2] [nM],also measured
CC(C)Oc1ccc(S(=O)(=O)N2CCN(c3ccc(C(=O)NC4CC4)c(OCC(=O)O)c3)CC2)cc1 [II-89],2100,20000,
CC(C)Oc1ccc(S(=O)(=O)N2CCN(c3ccc(-c4ncco4)c(OCC(=O)O)c3)CC2)cn1 [II-94],2000,1700,
CC(C)Oc1ccc(S(=O)(=O)N2CCN(c3ccc(C(=O)NCC4CC4)c(OCC(=O)O)c3)CC2)cc1 [II-105],1500,16000,
CC(C)Oc1ccc(S(=O)(=O)N2CCN(c3ccc(C(=O)NCc4ccccn4)c(OCC(=O)O)c3)CC2)cc1 [II-100],2400,12800,
Cc1cc(C(=O)Nc2ccc(N3CCN(S(=O)(=O)c4ccc(OC(C)C)cc4)CC3)cc2OCC(=O)O)no1 [II-60],880,2600,
CC(C)Oc1ccc(S(=O)(=O)N2CCC(Oc3ccc(Cl)cc3CCC(=O)O)CC2)cc1 [Compound I-10],2700,30000,
CC(C)Oc1ccc(S(=O)(=O)N2CCN(c3ccc(Cl)c(OCC(=O)O)c3)CC2)cc1F [II-31],810,3700,
CC(C)Oc1ccc(S(=O)(=O)N2CCN(c3ccc(C(=O)Nc4cc(C5CC5)n[nH]4)c(OCC(=O)O)c3)CC2)cc1 [II-112],120,9300,
CC(C)Oc1ccc(S(=O)(=O)N2CCN(c3ccc(C(=O)Nc4nccs4)c(OCC(=O)O)c3)CC2)cc1 [II-108],130,13000,
CC(C)Oc1ccc(S(=O)(=O)N2CCN(c3cc(F)cc(OCC(=O)O)c3)CC2)cc1 [II-25],670,1600,
CC(C)Oc1ccc(S(=O)(=O)N2CCN(c3ccc(-c4nncs4)c(OCC(=O)O)c3)CC2)cc1 [II-88],230,1500,
CC(C)Oc1ccc(S(=O)(=O)N2CCN(c3ccc(C(=O)Nc4nc5ccccc5[nH]4)c(OCC(=O)O)c3)CC2)cc1 [II-101],210,22000,
CC(C)Oc1ccc(S(=O)(=O)N2CCN(c3ccc(-c4cnco4)c(OCC(=O)O)c3)CC2)cn1 [II-85],,1700,IC50 [1]: 510 nM
CC(C)Oc1ccc(S(=O)(=O)N2CCN(c3ccc(C(=O)Nc4ccccc4)c(OCC(=O)O)c3)CC2)cc1 [II-62],1100,4700,
CC(C)Oc1ccc(S(=O)(=O)N2CCC(c3ccc(Cl)c(OCC(=O)O)c3)CC2)cc1 [Compound I-31],160,3600,
CC(C)Oc1ccc(S(=O)(=O)N2CCN(c3ccc([N+](=O)[O-])c(NCC(=O)O)c3)CC2)cc1 [II-135],130,490,
CC(C)Oc1ccc(S(=O)(=O)N2CCN(c3ccc(-c4ncco4)c(OCC(=O)O)c3)CC2)cc1 [II-74],520,240,
Cc1nnc(-c2ccc(N3CCN(S(=O)(=O)c4ccc(OC(C)C)cc4)CC3)cc2OCC(=O)O)s1 [II-75],580,580,
CC(C)Oc1ccc(S(=O)(=O)N2CCN(c3ccc(Cl)c(OCC(=O)O)c3)C(C)C2)cc1 (stereo not drawn) [II-44],690,1600,

SMILES,"IC50 [1, 4] [nM]",Ki [2] [nM],also measured
CC(C)Oc1ccc(S(=O)(=O)N2CCN(c3cc(OCC(=O)O)cc(-c4cccs4)c3)CC2)cc1 [II-51],640,520,
CC(C)Oc1ccc(S(=O)(=O)N2CCN(c3ccc(Cl)c(OCC(=O)O)c3)CC2)cc1 [II-10],410,650,
CC(C)Oc1ccc(S(=O)(=O)N2CCN(c3ccc(C(=O)NCc4cccs4)c(OCC(=O)O)c3)CC2)cc1 [II-99],590,11000,
CC(C)Oc1ccc(S(=O)(=O)N2CCN(c3ccc(-n4cccn4)c(OCC(=O)O)c3)CC2)cc1 [II-95],2400,4700,
CC(C)Oc1ccc(S(=O)(=O)N2CCN(c3ccc4ncn(CC(=O)O)c4c3)CC2)cc1 [II-134],2700,8500,
CC(C)Oc1ccc(S(=O)(=O)N2CCN(c3ccc(-c4ccco4)c(OCC(=O)O)c3)CC2)cc1 [II-65],140,16000,
CC(C)Oc1ccc(S(=O)(=O)N2CCN(c3ccc(C(=O)Nc4ccn(C)n4)c(OCC(=O)O)c3)CC2)cc1 [II-111],700,36000,
CC(C)Oc1ccc(S(=O)(=O)N2CCN(c3ccc(-c4nnco4)c(OCC(=O)O)c3)CC2)cc1 [II-46],790,870,
CCCNC(=O)c1ccc(N2CCN(S(=O)(=O)c3ccc(OC(C)C)cc3)CC2)cc1OCC(=O)O [II-83],2000,20000,
CC(C)Oc1ccc(S(=O)(=O)N2CCN(c3ccc(C(N)=O)c(OCC(=O)O)c3)CC2)cc1 [II-81],1800,2600,
CC(C)Oc1ccc(S(=O)(=O)N2CCN(c3ccc(NC(=O)c4ccccn4)c(OCC(=O)O)c3)CC2)cc1 [II-47],3100,2200,
CC(C)Oc1ccc(S(=O)(=O)N2CCN(c3ccc(C(=O)NCc4ccco4)c(OCC(=O)O)c3)CC2)cc1 [II-106],1600,19000,
CC(C)Oc1ccc(S(=O)(=O)N2CCN(c3ccc(NC(=O)c4ccccc4)c(OCC(=O)O)c3)CC2)cc1 [II-28],2500,3800,
Cc1nnc(-c2ccc(N3CCN(S(=O)(=O)c4ccc(OC(C)C)cc4)CC3)cc2OCC(=O)O)o1 [II-61],2100,1400,
Cc1cnc(-c2ccc(N3CCN(S(=O)(=O)c4ccc(OC(C)C)cc4)CC3)cc2OCC(=O)O)o1 [II-73],1000,1100,
CNC(=O)c1ccc(N2CCN(S(=O)(=O)c3ccc(OC(C)C)cc3)CC2)cc1OCC(=O)O [II-82],1100,5000,
CC(C)NC(=O)c1ccc(N2CCN(S(=O)(=O)c3ccc(OC(C)C)cc3)CC2)cc1OCC(=O)O [II-63],,,"inhibition in vivo at 10 mg/kg ([3]; BN rats, 10 mg/kg p.o. once a day for three days, mucin in airway lavage fluid by ELISA against control group, read-out: inhibition rate (%) mucus-secretion): 79%; inhibition in vivo at 10 mg/kg ([3]; BN rats, 10 mg/kg p.o. once a day for three days, total cell number in bronchoalveolar washings against control group, read-out: inhibition rate (%) infiltration of inflammatory cells): 59%; inhibition in vivo at 10 mg/kg ([3]; read-out: inhibition rate (%) airway hyperresponsiveness): 41%"
CC(C)Oc1ccc(S(=O)(=O)N2CCN(c3ccc(C(=O)Nc4nncs4)c(OCC(=O)O)c3)CC2)cc1 [II-110],360,9800,
